In publication PMC11373198, “In vitro efficacy of next-generation dihydrotriazines and biguanides against babesiosis and malaria parasites” (Antimicrobial Agents and Chemotherapy, 2024):
“Also recorded” adds a separate entry of the source. Where two headings read alike, the source gives them in different places.

Tests used:
B. duncani (WA-1) [1] = experiment: In vitro growth inhibition of B. duncani in human erythrocytes (SYBR Green-I); format: cell-based, Babesia duncani; conditions: continuous in vitro culture in human erythrocytes, read-out: IC50 B. duncani
HCT116 = experiment: Cytotoxicity on human cell line (MTT); format: cell-based; conditions: HCT-116, 72 h
Protocol: (§1) HeLa, HepG2, HEK293, and HCT116 cell lines were obtained from the American Type Culture Collection (ATCC) and maintained in Dulbecco’s modified Eagle’s medium (DMEM) (Invitrogen 11995–065) containing 25 mM glucose, 1 mM sodium pyruvate, and supplemented with 5 mM HEPES, 10% FBS, and penicillin-streptomycin (50 U/mL penicillin, 50 µg/mL streptomycin). Cells were seeded in a 96-well tissue culture plate (20,000 cells per well) and allowed to adhere for 24 hours, after which they were treated with a 12-step 2-fold serial dilution of each drug starting at 1 mM as the highest final concentration. Cells maintained in the medium supplemented with either 0.1% or 10% DMSO were used as negative and positive vehicle controls, respectively. The plates were incubated at 37 °C for 72 h, after which each well was incubated with 0.5 mg/mL of MTT reagent (MP Chemicals #02102227) for 4 h in the dark at 37 °C. The formazan crystals formed by living cells were solubilized with the addition of 100 µL of DMSO to each well. We measured the OD590nm using a SpectraMax plate reader. From the obtained OD values, percent cell viability was estimated by normalizing to the mean of 10% DMSO wells (set as 100% toxicity) and mean of the vehicle control wells (set as 0% toxicity). Dose-response curves were plotted using GraphPad Prism version 9.1.2.

HEK293 = experiment: Cytotoxicity on human cell line (MTT); format: cell-based; conditions: 72 h
Protocol: as §1

HeLa = experiment: Cytotoxicity on human cell line (MTT); format: cell-based; conditions: 72 h
Protocol: as §1

HepG2 = experiment: Cytotoxicity on human cell line (MTT); format: cell-based; conditions: 72 h
Protocol: as §1

B. duncani DHFR-TS [2] = target: T1, B. duncani DHFR-TS (Babesia duncani, UniProt A0AAD9UQZ8); experiment: Enzyme inhibition assay: DHFR activity of purified DHFR-TS; format: biochemical
Protocol: (§2) The inhibition of DHFR activity with selected JPC derivatives was measured as previously described ([59]). Briefly, the purified enzyme (0.1 µM) (supporting information) (Fig. S7) was incubated with increasing concentrations of JPC-2067 or JPC-2056 in a reaction buffer containing 300 µM DHF and 300 µM NADPH. OD340 reduction rate (OD340/min) was measured for further calculation. The % inhibition was calculated using the formula:
(§3) =1−((OD340/min)sample−(OD340/min)negative control)/((OD340/min)positive control−(OD340/min)negative control)
(§4) The IC50 was determined from a sigmoidal dose-response curve using GraphPad Prism version 9.1.2.
(§5) Dihydrofolate reductase-thymidylate synthase (DHFR-TS) gene from B. duncani (BdDHFR-TS BdWA1_001462) and B. microti (BmDHFR-TS BMR1_02g03680) were cloned into pMAL-c4x by GenScript USA Inc. Both enzymes were expressed as fusion proteins with N’-terminal maltose binding protein (MBP) tag. Constructs of pMAL-c4x-BdDHFR-TS and pMAL-c4x-BmDHFR-TS were transformed by heat shock into E. coli BL-21(DE3). E. coli BL-21(DE3) harboring pMAL-c4x-DHFR-TS was grown overnight in 2 ml LB ampicillin (100 µg/mL). Cultures were diluted 100-fold in fresh LB medium with 0.2% glucose and grown to A600 of ~0.5 at 37°C. DHFR-TS expression was induced by the addition of 0.5 mM isopropyl thiogalactoside (IPTG) followed by growth for overnight at 16°C or at room temperature (RT). The cells were harvested by centrifugation (8,000 × g × 10 min, 4°C), washed by resuspension in water, and re-centrifuged. Cells were used directly for purification or kept frozen at -20°C. Prior to enzyme purification, cells were re-suspended in binding buffer containing 25 mM Tris-HCl pH 8, 500 mM NaCl, 0.5% glycerol, and 50mM L-arginine. Cells were supplemented benzonase DNAse (250U/µl) and 3-((3-cholamidopropyl) dimethylammonio)-1-propanesulfonate (CHAPS) (0.002%) and were disrupted by sonication on ice using Omni Sonic Ruptor 400 Ultrasonic Homogenizer (15-sec burst at 70% amplitude, 3 times, with 30-sec cooling intervals). A soluble supernatant was prepared by centrifugation (16,000 × g × 20 min) of the cells sonicate.
(§6) Recombinant DHFR-TSs were purified from the clear cell extract supernatant using amylose resin (NEB), methotrexate-agarose beads, and in some cases size exclusion chromatography (SEC). Briefly, soluble supernatant was incubated with amylose beads in binding buffer with gentle agitation for 1h at 4°C. Following enzyme adsorption, the affinity matrix was transferred to a column and unbound proteins were removed by washing with binding buffer. Purified enzymes were eluted with elution buffer containing 10 mM maltose. Amylose elution fractions were loaded onto MTX-agarose resin and purified DHFR-TS enzymes were eluted using 2 mM dihydrofolic acid (DHF). […]

B. microti DHFR-TS [3] = target: T2, B. microti DHFR-TS (Babesia microti, UniProt A0A1R4AAV1); experiment: as above; format: biochemical
Protocol: as §2, §3, §4, §5, §6

[4] = system: human cell lines (HepG2, HCT-116, HEK-293, and HeLa); experiment: Cytotoxicity on human cell lines, average / overall, and therapeutic index; format: cell-based; conditions: up to 900 µM, HCT-116, HepG2, HEK-293
B. duncani (WA-1) [5] = experiment: In vivo efficacy in mouse model of lethal B. duncani infection; design: species or system C3H/HeJ mice
Protocol: The finding that JPC-2067 is effective against B. duncani in vitro led us to investigate the activity of its prodrug JPC-2056 in the mouse model of lethal infection (C3H/HeJ mice) ([57]). […] To evaluate the efficacy of JPC-2056, two groups of 5 female mice each were infected with 1 × 10^4 B. duncani-infected erythrocytes and at day 1 post-infection (DPI-1) received either a vehicle (PEG-400) or 30 mg/kg of JPC-2056 administered orally once a day for 10 days. […] However, parasitemia in these mice continued to increase over time reaching peak levels at DPI-12 (Fig. 3A and B). These animals succumbed to lethal B. duncani infection at DPI-13 (Fig. 3A and C).
(§7) Both C3H/HeJ and CB17/SCID mice aged 5–6 weeks (4 to 5 mice per group in each of the studies described herein) were injected intravenously with (1 × 10^4 iRBCs) of B duncani (WA-1) and B. microti (LabS1) parasites, respectively. The infected mice were treated by oral gavage over 10 days (DPI −1 to 10). During the treatment, each mouse received 100 µL of either vehicle (PEG-400) or prodrug JPC-2056 (30 mg/kg). Percent parasitemia was determined by counting at least 3,000 RBCs from Giemsa-stained […] blood smears.

B. microti (LabS1) = experiment: In vivo efficacy in SCID mouse model of B. microti infection; design: species or system CB17/SCID mice
Protocol: Building on the promising efficacy of JPC-2056 against B. duncani parasites in vivo, we extended our investigation to assess the efficacy of this compound against B. microti (ATCC LabS1) in the SCID (severely combined immunodeficient) mouse model of infection following inoculation with a 1 × 10^4 infected erythrocytes.
as §7

B. duncani DHFR-TS [6] = target: T1, B. duncani DHFR-TS; design: method as in PMID 37055610; conditions: recent studies; cited from earlier work
B. microti DHFR-TS [7] = target: T2, B. microti DHFR-TS; design: method as in PMID 37055610; conditions: recent studies; cited from earlier work
B. duncani = system: B. duncani; design: method as in PMID 37055610; conditions: previous studies; read-out: IC50 against B. duncani; cited from earlier work
[8] = in vivo; cited from earlier work
B. microti = system: B. microti; design: method as in PMID 7447406; conditions: Mongolian jirds; cited from earlier work
Babesia gibsoni = system: Babesia gibsoni; design: method as in PMID 18794380, PMID 21904052; conditions: cited from earlier work
Babesia bovis = system: Babesia bovis; design: method as in PMID 18794380, PMID 21904052; conditions: cited from earlier work
[9] = 0.1 µM enzyme, 300 µM DHF, 300 µM NADPH
[10] = 30 mg/kg orally once a day for 10 days

T1 sequence (A0AAD9UQZ8 entry or part of it): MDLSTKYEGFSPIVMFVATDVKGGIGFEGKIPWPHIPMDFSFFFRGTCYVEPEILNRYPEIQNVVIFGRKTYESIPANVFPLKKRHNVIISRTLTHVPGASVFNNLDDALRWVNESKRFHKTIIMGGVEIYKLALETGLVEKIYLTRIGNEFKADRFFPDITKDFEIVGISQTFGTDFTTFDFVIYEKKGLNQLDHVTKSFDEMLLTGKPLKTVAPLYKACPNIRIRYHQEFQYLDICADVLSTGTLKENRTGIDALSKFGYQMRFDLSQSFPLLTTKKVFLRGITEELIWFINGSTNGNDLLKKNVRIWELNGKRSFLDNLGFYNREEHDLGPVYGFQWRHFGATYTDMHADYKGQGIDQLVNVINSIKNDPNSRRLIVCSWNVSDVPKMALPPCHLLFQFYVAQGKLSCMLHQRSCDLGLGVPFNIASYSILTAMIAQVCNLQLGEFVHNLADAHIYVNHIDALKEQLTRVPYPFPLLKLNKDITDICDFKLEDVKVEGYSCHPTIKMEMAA
T2 sequence (A0A1R4AAV1 entry or part of it): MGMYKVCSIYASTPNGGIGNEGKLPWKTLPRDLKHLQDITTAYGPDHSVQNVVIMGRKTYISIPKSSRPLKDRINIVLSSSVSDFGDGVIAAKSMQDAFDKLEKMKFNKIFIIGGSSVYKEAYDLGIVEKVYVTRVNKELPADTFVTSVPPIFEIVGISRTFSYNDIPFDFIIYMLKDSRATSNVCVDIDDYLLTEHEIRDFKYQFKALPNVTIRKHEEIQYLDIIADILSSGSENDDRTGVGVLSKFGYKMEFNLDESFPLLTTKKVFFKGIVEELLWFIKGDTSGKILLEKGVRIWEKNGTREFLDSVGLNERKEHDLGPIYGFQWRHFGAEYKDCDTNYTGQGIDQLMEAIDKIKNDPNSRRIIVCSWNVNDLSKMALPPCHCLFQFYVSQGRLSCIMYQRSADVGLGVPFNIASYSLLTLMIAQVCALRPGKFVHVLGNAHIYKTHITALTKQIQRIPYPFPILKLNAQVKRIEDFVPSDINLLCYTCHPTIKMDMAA

SMILES | IC50 (B. duncani (WA-1) [1]; Babesia duncani, Erythrocyte) | IC50 (B. duncani (WA-1) [1]) | IC50 (HCT116) | IC50 (HEK293) | IC50 (HeLa) | IC50 (HepG2) | cytotoxicity (effect on human cell lines) [4] | IC50 (B. duncani) | other results
CC1(C)NC(=N)NC(=N)N1OCCCOc1ccc(OC(F)(F)F)cc1Cl [JPC-2067] | 0.0089 ± 0.002 µM | 0.00893 µM | 1000 µM | 1000 µM | > 900 µM | 1150 µM | no discernible effect |  | EC50 (B. duncani DHFR-TS [2]; [9]): 0.001 µM; EC50 (B. microti DHFR-TS [3]; [9]): 0.0147 µM
CC(C)NC(=N)NC(=N)NOCCCOc1ccc(OC(F)(F)F)cc1Cl [JPC-2056] | 0.8694 ± 0.004 µM | 0.869 µM | 1000 µM | 1000 µM | > 900 µM | 1000 µM | no discernible effect |  | inhibitory activity against B. duncani DHFR-TS (B. duncani DHFR-TS [2]; Fig. S3A): no discernible inhibitory activity; inhibitory activity against B. microti DHFR-TS (B. microti DHFR-TS [3]; Fig. S3B): no discernible inhibitory activity; day animals succumbed to lethal infection (B. duncani (WA-1) [5]; [10]): 13 DPI; parasite emergence (B. duncani (WA-1) [5]; [10]): delay in parasite emergence; parasitemia compared to vehicle-treated mice (B. duncani (WA-1) [5]; 30 mg/kg orally once a day for 10 days (DPI-1 to 10)): reduced peak parasitemia; adverse effects (B. microti (LabS1); 30 mg/kg once a day for 10 days): without observable adverse effects; outcome of B. microti infection (B. microti (LabS1); 30 mg/kg once a day for 10 days (DPI-1 to 10)): clearance of infection with no parasites detected up to DPI-45; also recorded: elimination of parasites
CC1(C)N=C(N)N=C(N)N1OCCCOc1cc(Cl)c(Cl)cc1Cl [WR99210] |  |  |  |  |  |  |  | 0.0005 µM | inhibition of B. duncani DHFR-TS activity (B. duncani DHFR-TS [6]): inhibits the activity; inhibition of B. microti DHFR-TS activity (B. microti DHFR-TS [7]): inhibits the activity; bioavailability [8]: poor bioavailability; gastrointestinal tolerability [8]: caused gastrointestinal complications
CCc1nc(N)nc(N)c1-c1ccc(Cl)cc1 [pyrimethamine, 2,4-Diamino-5-(4-chlorophenyl)−6-ethylpyrimidine] |  |  |  |  |  |  |  | 0.94 µM | activity against B. microti infection (B. microti): little to no activity; inhibition of in vitro parasite growth of Babesia gibsoni (Babesia gibsoni): moderate to effective inhibition; inhibition of in vitro parasite growth of Babesia bovis (Babesia bovis): moderate to effective inhibition
